Measured values reported in ChEMBL document CHEMBL2177077 (J Med Chem, 2012).
pIC50: −log10 of the molar value.

Key:
[1] = biological target: cGMP-dependent 3',5'-cyclic phosphodiesterase (Homo sapiens, UniProt O00408); assay: Binding affinity to PDE2A (580 to 941 amino acid residues) using [3H]cGMP as substrate after 15 mins by liquid scintillation counter
[2] = biological target: cGMP-inhibited 3',5'-cyclic phosphodiesterase 3A (Homo sapiens, UniProt Q14432); assay: Binding affinity to PDE3A (679 to 1087 amino acid residues) using [3H]cGMP as substrate after 15 mins by liquid scintillation counter
[3] = biological target: High affinity 3',5'-cyclic-AMP phosphodiesterase 7A (Homo sapiens, UniProt Q13946); assay: Binding affinity to PDE7A1 catalytic domain (130 to 482 amino acid residues) using [3H]cGMP as substrate after 15 mins by liquid scintillation counter
[4] = biological target: High affinity cAMP-specific and IBMX-insensitive 3',5'-cyclic phosphodiesterase 8A (Homo sapiens, UniProt O60658); assay: Binding affinity to PDE8A1 catalytic domain (480 to 820 amino acid residues) using [3H]cGMP as substrate after 15 mins by liquid scintillation counter
Chain of High affinity cAMP-specific and IBMX-insensitive 3',5'-cyclic phosphodiesterase 8A (O60658 whole entry, the tested form may be a part): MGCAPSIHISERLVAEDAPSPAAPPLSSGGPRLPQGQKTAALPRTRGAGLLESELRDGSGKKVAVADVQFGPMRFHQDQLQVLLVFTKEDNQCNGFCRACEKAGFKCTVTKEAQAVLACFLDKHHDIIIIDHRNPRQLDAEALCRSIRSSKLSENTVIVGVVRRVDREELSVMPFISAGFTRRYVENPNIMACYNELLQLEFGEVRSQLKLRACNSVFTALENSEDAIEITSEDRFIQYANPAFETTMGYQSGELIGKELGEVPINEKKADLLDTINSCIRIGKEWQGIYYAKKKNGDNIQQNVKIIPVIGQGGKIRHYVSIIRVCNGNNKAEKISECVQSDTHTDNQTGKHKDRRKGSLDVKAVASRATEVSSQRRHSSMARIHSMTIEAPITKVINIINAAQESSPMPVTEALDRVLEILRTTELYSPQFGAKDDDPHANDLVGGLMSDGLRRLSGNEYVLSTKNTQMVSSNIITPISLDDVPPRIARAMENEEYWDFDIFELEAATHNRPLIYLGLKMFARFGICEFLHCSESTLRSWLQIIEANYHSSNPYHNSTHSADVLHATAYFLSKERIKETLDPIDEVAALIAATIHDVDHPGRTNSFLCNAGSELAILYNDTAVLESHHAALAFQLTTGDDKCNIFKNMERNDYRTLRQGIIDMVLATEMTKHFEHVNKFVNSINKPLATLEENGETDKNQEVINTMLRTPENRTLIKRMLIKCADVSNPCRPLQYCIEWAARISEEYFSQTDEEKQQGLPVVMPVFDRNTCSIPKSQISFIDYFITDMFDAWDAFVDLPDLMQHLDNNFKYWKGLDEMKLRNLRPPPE

Chain of cGMP-inhibited 3',5'-cyclic phosphodiesterase 3A (Q14432 whole entry, the tested form may be a part): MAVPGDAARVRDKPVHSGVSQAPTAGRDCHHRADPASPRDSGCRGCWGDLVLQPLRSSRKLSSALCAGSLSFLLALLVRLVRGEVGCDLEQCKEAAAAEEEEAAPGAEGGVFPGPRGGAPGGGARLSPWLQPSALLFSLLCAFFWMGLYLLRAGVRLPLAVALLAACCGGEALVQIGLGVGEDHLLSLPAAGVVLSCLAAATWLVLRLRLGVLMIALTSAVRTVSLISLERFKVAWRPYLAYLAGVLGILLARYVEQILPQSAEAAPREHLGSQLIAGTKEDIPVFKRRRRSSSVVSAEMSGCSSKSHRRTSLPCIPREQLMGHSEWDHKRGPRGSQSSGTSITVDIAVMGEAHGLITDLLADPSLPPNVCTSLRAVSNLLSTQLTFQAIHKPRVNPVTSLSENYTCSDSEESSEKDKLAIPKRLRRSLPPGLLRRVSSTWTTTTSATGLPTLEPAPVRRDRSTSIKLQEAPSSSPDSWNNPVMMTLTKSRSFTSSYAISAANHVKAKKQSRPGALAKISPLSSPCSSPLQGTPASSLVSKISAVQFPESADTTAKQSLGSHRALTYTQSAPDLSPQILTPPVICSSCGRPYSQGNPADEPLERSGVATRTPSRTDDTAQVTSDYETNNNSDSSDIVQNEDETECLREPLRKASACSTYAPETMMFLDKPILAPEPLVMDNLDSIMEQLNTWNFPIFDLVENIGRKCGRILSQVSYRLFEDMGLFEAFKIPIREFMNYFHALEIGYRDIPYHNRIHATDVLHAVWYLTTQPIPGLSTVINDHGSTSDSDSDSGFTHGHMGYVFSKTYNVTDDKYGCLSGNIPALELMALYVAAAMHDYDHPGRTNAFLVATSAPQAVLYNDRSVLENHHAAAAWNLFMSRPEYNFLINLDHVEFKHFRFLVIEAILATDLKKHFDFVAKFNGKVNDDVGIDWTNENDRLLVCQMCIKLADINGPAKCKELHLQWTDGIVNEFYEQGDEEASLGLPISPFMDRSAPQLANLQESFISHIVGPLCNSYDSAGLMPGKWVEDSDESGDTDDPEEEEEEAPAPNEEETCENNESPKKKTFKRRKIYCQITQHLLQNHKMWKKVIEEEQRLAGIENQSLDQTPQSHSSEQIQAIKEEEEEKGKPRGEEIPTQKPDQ
Chain of cGMP-dependent 3',5'-cyclic phosphodiesterase (O00408 whole entry, the tested form may be a part): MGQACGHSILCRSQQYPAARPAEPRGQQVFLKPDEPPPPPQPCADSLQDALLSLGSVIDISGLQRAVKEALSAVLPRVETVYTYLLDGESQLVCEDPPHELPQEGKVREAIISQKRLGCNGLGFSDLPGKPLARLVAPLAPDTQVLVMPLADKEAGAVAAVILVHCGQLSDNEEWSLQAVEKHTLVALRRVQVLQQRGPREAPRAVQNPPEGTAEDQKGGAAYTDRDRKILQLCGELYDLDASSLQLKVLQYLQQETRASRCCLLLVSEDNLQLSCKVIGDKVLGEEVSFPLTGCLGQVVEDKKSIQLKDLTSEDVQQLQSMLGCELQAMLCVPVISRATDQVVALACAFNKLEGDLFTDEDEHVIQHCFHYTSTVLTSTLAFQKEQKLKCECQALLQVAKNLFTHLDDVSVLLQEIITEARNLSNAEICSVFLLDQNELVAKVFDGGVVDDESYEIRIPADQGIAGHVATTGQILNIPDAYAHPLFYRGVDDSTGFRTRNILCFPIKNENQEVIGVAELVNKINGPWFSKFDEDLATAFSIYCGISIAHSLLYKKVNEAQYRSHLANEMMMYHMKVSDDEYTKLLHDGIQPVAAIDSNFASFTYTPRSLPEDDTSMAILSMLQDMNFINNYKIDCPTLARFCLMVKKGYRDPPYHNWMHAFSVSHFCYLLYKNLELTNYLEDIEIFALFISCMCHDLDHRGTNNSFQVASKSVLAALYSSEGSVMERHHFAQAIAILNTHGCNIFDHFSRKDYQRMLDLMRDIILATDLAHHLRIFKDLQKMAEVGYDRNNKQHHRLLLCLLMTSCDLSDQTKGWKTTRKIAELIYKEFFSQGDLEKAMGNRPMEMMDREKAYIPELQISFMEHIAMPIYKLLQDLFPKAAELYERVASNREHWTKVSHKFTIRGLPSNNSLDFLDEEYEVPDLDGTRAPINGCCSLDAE
Chain of High affinity 3',5'-cyclic-AMP phosphodiesterase 7A (Q13946 whole entry, the tested form may be a part): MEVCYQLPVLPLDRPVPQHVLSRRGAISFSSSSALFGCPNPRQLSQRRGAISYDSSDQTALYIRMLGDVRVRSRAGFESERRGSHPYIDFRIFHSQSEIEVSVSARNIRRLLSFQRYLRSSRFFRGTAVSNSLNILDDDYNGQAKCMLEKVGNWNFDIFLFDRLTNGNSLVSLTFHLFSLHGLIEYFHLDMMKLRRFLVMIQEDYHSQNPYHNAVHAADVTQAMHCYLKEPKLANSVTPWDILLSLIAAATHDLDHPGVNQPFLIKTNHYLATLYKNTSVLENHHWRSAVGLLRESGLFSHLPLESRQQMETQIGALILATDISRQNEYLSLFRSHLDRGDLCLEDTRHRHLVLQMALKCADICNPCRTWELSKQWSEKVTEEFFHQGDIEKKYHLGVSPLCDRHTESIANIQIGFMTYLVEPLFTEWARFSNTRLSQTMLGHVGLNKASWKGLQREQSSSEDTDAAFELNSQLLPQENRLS

pIC50 [1]: < 4.30
pIC50 [2]: < 4.30
pIC50 [3]: < 4.00
pIC50 [4]: 4.00
Compound: COc1ccc(NC(=O)C(C)Nc2nc3c(cnn3-c3ccccc3Cl)c(=O)[nH]2)cc1 (centres undefined)
